Tests used:
[1] = test system: α-synuclein protein; assay: α-synuclein-specific ELISA in SK-N-MC cells; type: cell-based, human
Experimental: Protein lysis buffer containing 320 mM sucrose, 5 mM NaF, 1 mM Na3VO4, 10 mM Tris (pH 7.4), 1 mM EGTA, and 1 mM EDTA was used for mice brain tissue lysis. 100 μL of cold extraction buffer was added to each sample and homogenized in a dounce homogenizer. After incubating on ice for 10 minutes post-homogenization, samples were centrifuged at 10,000 rpm at 4° C. for 10 minutes. Supernatant was transferred to new tubes and centrifuged again at 10,000 rpm at 4° C. for additional 10 minutes. The final supernatant was transferred to new tubes and protein estimation was performed by ELISA. Total protein from rodent primary cells, human neuroblastoma cells and iPSC-derived neuronal cells was extracted using lysis buffer containing 1×PBS and 0.5% NP-40. Cells were washed once with cold PBS and lysed by adding cold lysis buffer. The cells were collected by scraping, then incubated for 30 minutes by rotating at 4° C. The samples were centrifuged at 14,000 rpm at 4° C. for 10 minutes and supernatant was transferred to new tubes. Total protein concentrations were determined by BCA assay (Thermo Scientific) according to the manufacturer's instructions. Total α-synuclein was quantified using an α-synuclein-specific sandwich ELISA.
An α-synuclein-specific Meso Scale Discovery (MSD) ELISA assay (described in Ref. (11)) was utilized for endogenous α-synuclein protein measurement. […] After samples were emptied and plate washed 3 times with TBS-T, sulfo-tagged SOY1 mAb (detection Ab) (generated using Sulfo-Tag-NHS-Ester (MSD) diluted in blocking buffer (6.7 ng/μl), was added to the plate (30 μl volumes/well) and shaken for 1 hour at room temperature. Following 3 washes, MSD Read (2×, diluted in ultrapure water) buffer was added and the plates were immediately measured using a MSD Sector 2400 imager. For confirmatory studies, an second α-synuclein-specific ELISA implementation was used employing a different, extensively published anti-α-synuclein detection antibody (Syn-1 mAb) and a different anti-α-synuclein capture antibody (1H9, courtesy Dr. Selkoe).

[2] = test system: H3K27 acetylation of SNCA promoter and enhancers; assay: chromatin immunoprecipitation for H3K27ac at SNCA promoter and enhancers in SK-N-MC cells; type: cell-based, human; conditions: clenbuterol 10 μM, valproic acid 100 μM, propranolol 100 μM, vs vehicle
Experimental: Chromatin immunoprecipitation (ChIP) assays were performed using the Simple ChIP Enzymatic Chromatin IP kit protocol as recommended by the manufacturer (Cell Signaling Technology) with slight modifications. Briefly, ChIPs were performed on asynchronously growing SK-N-MC cells treated with clenbuterol (10 μM), valproic acid (100 μM) or propranolol (100 μM). Cross-linking was carried out with 1% formaldehyde for 10 min at room temperature. Cross-linking was subsequently quenched by adding glycine to a final concentration of 1× for 5 min. Cells were collected and washed twice with PBS, then resuspended in 2 mL of lysis buffer (as described in the protocol). After 10 min on ice, cells were treated with micrococcal nuclease and then sonicated to obtain DNA fragments of ˜500 bp as determined by agarose gel electrophoresis with ethidium bromide staining. Protein-DNA complexes were isolated by centrifugation at 10,000 rpm for 10 min. Supernatants with protein-DNA complexes were incubated overnight with rabbit polyclonal antibody directed against acetylated H3K27 (Abcam). Normal rabbit IgG was used as a negative control and Histone H3 rabbit mAb (ChIP formulated) as positive control. 2% of sample was saved as input. Antibody-protein-DNA complexes were further incubated for 2 hours with 30 μl of ChIP-grade Protein G magnetic beads to isolate antibody bound fractions of chromatin. Immuno-complexes were washed with the buffers provided and as described in the kit. Protein-DNA complexes were eluted and cross-links of pull down fractions and inputs (2% of total IP fraction) were reversed by 2 hours incubation in Proteinase K and 5 M NaCl at 65° C. […] 2 μl of immunoprecipitated DNA was analyzed by qPCR using a Power SYBR Green PCR Master mix (Applied Biosystems by Life technologies) on an ABI 7900HT instrument (Applied Biosystems) with the following temperature profile: 3 min of enzyme activation at 95° C. followed by 40 cycles of 95° C. for 15 s and 60° C. for 60 s. Sample from three independent immunoprecipitation assays were analyzed.

[3] = test system: Parkinson's disease; assay: Norwegian Prescription Database analysis of incident Parkinson's disease; type: in vivo, human
Description: We included the entire population of Norway alive on 1 Jan. 2004 by linking the Norwegian National Registry (NNR) with the Norwegian Prescription Database (NorPD) using the unique national identification number. The NNR contains information on all residents in Norway, time of immigration, emigration and death. This information was further linked to the Norwegian National Education Database (NNED) to assess level of education of all participants.
This registry contains complete information on all prescribed drugs dispensed at pharmacies to individuals since 2004. Each prescription includes the national identification number, which makes it possible to generate a precise chronological prescription record for individuals over time, and to link this information to other registries. Drugs are classified according to the Anatomical Therapeutic Chemical classification and doses are reported as defined daily dose (DDD). If the national insurance scheme covers the cost of the drug, the prescription also contains the diagnosis the drug was prescribed for (from 2008: ICD-10 and ICPC; before 2008: local diagnostic code).
The first year of prescription of any antiparkinson drug (N04) was considered year of onset of PD. We used the year 2004 as a washout-period to only include incident cases.
To further limit the chance of reverse causality, we only included users who had been prescribed at least 365 DDD or more of propranolol.
The level of education was categorized into primary education, secondary education, undergraduate education or graduate education. Age at study start was categorized in 5 years intervals. […] Outcome was PD as defined above at time of first prescription of an antiparkinson drug. Participants not developing PD were censored at end of follow-up (31 Dec. 2014), at date of death or date of emigration out of Norway, whichever occurred first. To test for dose-response effects, we categorized participants according to the cumulative number of DDD in 2004-2007 and estimated the RR of developing PD in 2008-2014. […] The hazard ratios were interpreted as rate ratios.

| Compound | endogenous α-synuclein protein under β2AR antagonism ([1]; SK-N-MC cells) | H3K27 acetylation across SNCA promoter and two intronic enhancers (ChIP) [2] | Rate ratio (RR) for Parkinson's disease, age-, sex-adjusted ([3]; ever user vs never user, 11 year follow-up of the entire population of Norway, propranolol: at least 365 defined daily doses) | Rate ratio (RR) for Parkinson's disease, multivariate adjusted ([3]; ever user vs never user, 11 year follow-up, adjusted for age, sex and level of education, propranolol: at least 365 defined daily doses) | Rate ratio for Parkinson's disease with time lag between first exposure and PD onset ([3]; time lags of one and two years, only cardiovascular diagnoses) | Rate ratio (RR) for Parkinson's disease during 2008-2014, multivariate adjusted ([3]; High (≥180 DDD) prescribed during 2004-2007, vs never user) | Rate ratio (RR) for Parkinson's disease during 2008-2014, multivariate adjusted ([3]; Medium (60-180 DDD) prescribed during 2004-2007, vs never user) | α-synuclein protein after 14 days ([1]; SK-N-MC cells, 10 μM, 14 days) | α-synuclein protein levels with increasing concentrations ([1]; SK-N-MC cells, 5, 10, 20 μM, four days) |
| --- | --- | --- | --- | --- | --- | --- | --- | --- | --- |
| CC(C)NCC(O)COc1cccc2ccccc12 (stereo not shown) [Propranolol, propranolol] | increased | increased H3K27Ac | 2.16 | 2.20 | 1.82 | – | – | – | – |
| CC(C)(C)NCC(O)c1ccc(O)c(CO)c1 (stereo not shown) [Salbutamol, salbutamol] | – | – | – | – | – | 0.45 (0.31-0.67) | 0.60 (0.40-0.91) | – | – |
| CC(C)(C)NCC(O)c1cc(Cl)c(N)c(Cl)c1 (stereo not shown) [clenbuterol] | – | reduced H3K27 acetylation | – | – | – | – | – | lowered | decrease |

Reference: patent US20210308077A1, “COMBINATIONS INCLUDING BETA-ADRENORECEPTOR AGONISTS FOR TREATMENT OF PARKINSON`S DISEASE AND MOVEMENT DISORDERS” (The Brigham and Women`s Hospital, Inc., priority 2017, published 2021)
